Strand notation (5' to 3'): a small letter for the sugar, then the base; units joined by * are phosphorothioate-linked, units joined directly phosphodiester-linked; [ ] holds rarer units or linkages, { } end groups; capitals alone tell only the bases. k = constrained ethyl (cEt); [5mC] = 5-methylcytosine; d = 2'-deoxy (DNA)

These results are taken from US10517889B2, “Modulators of SMAD7 expression” (Ionis Pharmaceuticals, Inc., priority 2017, dated 2019).

In the first data set the test system is human SMAD7 mRNA. Briefly: Antisense inhibition of human SMAD7 mRNA expression in Hep3B cells by 3-10-3 cEt gapmers, 10,000 nM, electroporation (Example 2). It is filed as cell-based. The note with it: Hep3B cells, electroporation with 10,000 nM antisense oligonucleotide, approximately 24 hours, SMAD7 mRNA by RT-PCR (RTS5062), relative to untreated control cells. The method in brief: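 Hep3B cells (20,000/well) were electroporated with 10,000 nM 3-10-3 cEt gapmer (16-mer, phosphorothioate, 5-methylcytosines) and harvested after about 24 h. SMAD7 mRNA quantified by RT-qPCR with primer probe set RTS5062, normalized to total RNA by RiboGreen; percent inhibition relative to untreated cells.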
For the substance “799241 (kA*kT*kT*d[5mC]*dT*d[5mC]*d[5mC]*dG*dT*dA*dT*dT*dT*kA*k[5mC]*kT; antisense) [compound 799241]”, the “% Inhibition” value came out at 16%.
“799252 (antisense k[5mC]*kA*kA*dA*dG*dG*dT*dG*d[5mC]*dG*d[5mC]*dG*dG*k[5mC]*k[5mC]*kA) [compound 799252]”: the “% Inhibition” value came to 41%.
For the substance “799253 (antisense k[5mC]*kT*k[5mC]*d[5mC]*dA*dA*dA*dG*dG*dT*dG*d[5mC]*dG*k[5mC]*kG*kG) [compound 799253]”, the “% Inhibition” value was found to be 0%.
As to “799254 (antisense kA*kA*kA*d[5mC]*dT*d[5mC]*d[5mC]*dA*dA*dA*dG*dG*dT*kG*k[5mC]*kG) [compound 799254]”, the “% Inhibition” value was 11%.
Still for that read-out and setting: next, “799255 (antisense k[5mC]*kA*kA*dA*dA*d[5mC]*dT*d[5mC]*d[5mC]*dA*dA*dA*dG*kG*kT*kG) [compound 799255]”: 0%; “799256 (antisense k[5mC]*k[5mC]*kA*dA*dA*dA*d[5mC]*dT*d[5mC]*d[5mC]*dA*dA*dA*kG*kG*kT) [compound 799256]”: 0%; “799257 (antisense k[5mC]*k[5mC]*k[5mC]*d[5mC]*dA*dA*dA*dA*d[5mC]*dT*d[5mC]*d[5mC]*dA*kA*kA*kG) [compound 799257]”: 27%.
Same read-out and setting: next, “799258 (antisense kG*k[5mC]*k[5mC]*d[5mC]*d[5mC]*dA*dA*dA*dA*d[5mC]*dT*d[5mC]*d[5mC]*kA*kA*kA) [compound 799258]”: 4%; “799259 (antisense kT*kG*k[5mC]*d[5mC]*d[5mC]*d[5mC]*dA*dA*dA*dA*d[5mC]*dT*d[5mC]*k[5mC]*kA*kA) [compound 799259]”: 45%.
The same measure, in the same setting: the result for “799260 (antisense kT*kT*kG*d[5mC]*d[5mC]*d[5mC]*d[5mC]*dA*dA*dA*dA*d[5mC]*dT*k[5mC]*k[5mC]*kA) [compound 799260]” reads 27%; that for “799261 (antisense kT*kT*kT*dG*d[5mC]*d[5mC]*d[5mC]*d[5mC]*dA*dA*dA*dA*d[5mC]*kT*k[5mC]*k[5mC]) [compound 799261]”, 52%.

Staying with this data set, now noted: Hep3B cells, electroporation with 10,000 nM antisense oligonucleotide, approximately 24 hours, primer probe set RTS5062, relative to untreated control cells.
“799223 (kA*kT*k[5mC]*dT*dT*dG*dT*dG*dT*dT*dT*dA*dT*k[5mC]*kT*kT; antisense) [compound 799223]”: the “% Inhibition” value is 0%.
As to “799224 (k[5mC]*k[5mC]*kA*dA*dT*d[5mC]*dT*dT*dG*dT*dG*dT*dT*kT*kA*kT; antisense) [compound 799224]”, the “% Inhibition” value was determined as 3%.
Consider “799225 (kA*k[5mC]*kA*d[5mC]*d[5mC]*dA*dA*dT*d[5mC]*dT*dT*dG*dT*kG*kT*kT; antisense) [compound 799225]”, for which the “% Inhibition” value is listed as 4%.
With “799226 (kA*kA*kA*dA*d[5mC]*dA*d[5mC]*d[5mC]*dA*dA*dT*d[5mC]*dT*kT*kG*kT; antisense) [compound 799226]”, the “% Inhibition” value was found to be 15%.
Still for that read-out and setting: next, “799227 (kG*kA*kA*dA*dA*dA*dA*dA*d[5mC]*dA*d[5mC]*d[5mC]*dA*kA*kT*k[5mC]; antisense) [compound 799227]”: 2%; “799228 (k[5mC]*kA*kT*dA*dG*dA*dA*dA*dA*dA*dA*dA*d[5mC]*kA*k[5mC]*k[5mC]; antisense) [compound 799228]”: 4%.
Consider “799229 (kA*kA*k[5mC]*dA*d[5mC]*d[5mC]*d[5mC]*dA*dT*dA*dG*dA*dA*kA*kA*kA; antisense) [compound 799229]”, for which the “% inhibition of SMAD7 mRNA expression” value turned out to be 22%.
Still for that read-out and setting: the result for “799230 (kG*kG*kT*dG*dA*dT*dA*dA*d[5mC]*dA*d[5mC]*d[5mC]*d[5mC]*kA*kT*kA; antisense) [compound 799230]” reads 14%; that for “799231 (kG*k[5mC]*kT*dA*dG*dG*dT*dG*dA*dT*dA*dA*d[5mC]*kA*k[5mC]*k[5mC]; antisense) [compound 799231]”, 8%.
For “799232 (kT*k[5mC]*kA*dG*d[5mC]*dT*dA*dG*dG*dT*dG*dA*dT*kA*kA*k[5mC]; antisense) [compound 799232]”, the “% inhibition of SMAD7 mRNA expression” value was 13%.
Still for that read-out and setting: the result for “799233 (k[5mC]*kA*kT*dT*d[5mC]*dA*dG*d[5mC]*dT*dA*dG*dG*dT*kG*kA*kT; antisense) [compound 799233]” reads 28%; that for “799234 (kA*kA*kA*d[5mC]*dA*dT*dT*d[5mC]*dA*dG*d[5mC]*dT*dA*kG*kG*kT; antisense) [compound 799234]”, 13%; that for “799235 (kG*kA*kA*dA*dA*dA*d[5mC]*dA*dT*dT*d[5mC]*dA*dG*k[5mC]*kT*kA; antisense) [compound 799235]”, 24%.
“799236 (kT*kA*kA*dA*d[5mC]*dT*d[5mC]*d[5mC]*dT*dT*dT*dA*dG*kA*kA*kA; antisense) [compound 799236]”: the “% Inhibition” value is listed as 45%.
Same read-out and setting: next, “799237 (kA*k[5mC]*kA*dT*dA*dA*dA*d[5mC]*dT*d[5mC]*d[5mC]*dT*dT*kT*kA*kG; antisense) [compound 799237]”: 9%; “799238 (kA*kA*kT*dG*dG*dA*dA*d[5mC]*dA*dT*dA*dA*dA*k[5mC]*kT*k[5mC]; antisense) [compound 799238]”: 17%.
On to “799242 (k[5mC]*kG*kT*dG*dA*dT*dT*d[5mC]*dT*d[5mC]*d[5mC]*dG*dT*kA*kT*kT; antisense) [compound 799242]”, for which the “% inhibition of SMAD7 mRNA expression” value worked out at 0%.
For “799243 (k[5mC]*k[5mC]*kA*d[5mC]*dT*dG*dG*dT*dG*dT*dT*d[5mC]*dG*kA*k[5mC]*kG; antisense) [compound 799243]”, the “% inhibition of SMAD7 mRNA expression” value amounted to 19%.
Take “799244 (kG*kG*kG*d[5mC]*d[5mC]*dA*d[5mC]*dT*dG*dG*dT*dG*dT*kT*k[5mC]*kG; antisense) [compound 799244]”: the “% inhibition of SMAD7 mRNA expression” value amounted to 8%.
Same read-out and setting: the result for “799245 (kG*kT*kA*dT*d[5mC]*dT*dG*dG*dG*d[5mC]*d[5mC]*dA*d[5mC]*kT*kG*kG; antisense) [compound 799245]” reads 18%; that for “799246 (antisense kA*k[5mC]*kA*dG*dT*dA*dT*d[5mC]*dT*dG*dG*dG*d[5mC]*k[5mC]*kA*k[5mC]) [compound 799246]”, 74%.
Still for that read-out and setting: next, “799247 (antisense kA*k[5mC]*kG*dA*d[5mC]*dA*dG*dT*dA*dT*d[5mC]*dT*dG*kG*kG*k[5mC]) [compound 799247]”: 61%; “799248 (antisense kG*k[5mC]*k[5mC]*dA*d[5mC]*dG*dA*d[5mC]*dA*dG*dT*dA*dT*k[5mC]*kT*kG) [compound 799248]”: 40%; “799249 (antisense kG*k[5mC]*kG*dG*d[5mC]*d[5mC]*dA*d[5mC]*dG*dA*d[5mC]*dA*dG*kT*kA*kT) [compound 799249]”: 26%.
The same measure, in the same setting: next, “799250 (antisense kT*kG*k[5mC]*dG*d[5mC]*dG*dG*d[5mC]*d[5mC]*dA*d[5mC]*dG*dA*k[5mC]*kA*kG) [compound 799250]”: 21%.
As for “799251 (antisense kA*kG*kG*dT*dG*d[5mC]*dG*d[5mC]*dG*dG*d[5mC]*d[5mC]*dA*k[5mC]*kG*kA) [compound 799251]”, the “% inhibition of SMAD7 mRNA expression” value worked out at 37%.
“799262 (antisense k[5mC]*kT*k[5mC]*dT*dT*dT*dG*d[5mC]*d[5mC]*d[5mC]*d[5mC]*dA*dA*kA*kA*k[5mC]) [compound 799262]”: the “% inhibition of SMAD7 mRNA expression” value came to 0%.
Consider “799263 (antisense kT*k[5mC]*k[5mC]*dA*dA*d[5mC]*dT*d[5mC]*dT*d[5mC]*dT*dT*dT*kG*k[5mC]*k[5mC]) [compound 799263]”, for which the “% inhibition of SMAD7 mRNA expression” value is 0%.
As to “799264 (antisense k[5mC]*k[5mC]*kA*dT*d[5mC]*d[5mC]*dA*dA*d[5mC]*dT*d[5mC]*dT*d[5mC]*kT*kT*kT) [compound 799264]”, the “% inhibition of SMAD7 mRNA expression” value turned out to be 16%.
The same measure, in the same setting: next, “799265 (antisense k[5mC]*kT*kT*d[5mC]*d[5mC]*dA*dT*d[5mC]*d[5mC]*dA*dA*d[5mC]*dT*k[5mC]*kT*k[5mC]) [compound 799265]”: 3%.
On the same count and under the same terms, next, “799266 (antisense kG*kG*k[5mC]*d[5mC]*dT*dT*d[5mC]*d[5mC]*dA*dT*d[5mC]*d[5mC]*dA*kA*k[5mC]*kT) [compound 799266]”: 37%.
The same measure, in the same setting: next, “799267 (antisense kG*kT*kT*d[5mC]*dG*dG*d[5mC]*d[5mC]*dT*dT*d[5mC]*d[5mC]*dA*kT*k[5mC]*k[5mC]) [compound 799267]”: 62%.

Still in this data set, the particulars now being: Hep3B cells, electroporation, 10,000 nM, approximately 24 hours; 3-10-3 cEt gapmers targeting SEQ ID NO: 3 and 4.
Turning to “799239 (kT*k[5mC]*kA*dG*dT*dT*dG*dG*dT*dT*dT*dG*dA*kG*kA*kA; antisense) [compound 799239]”, the “% inhibition of SMAD7 mRNA expression” value came out at 16%.
With “799240 (kA*kT*k[5mC]*dT*dG*dG*dA*d[5mC]*dA*dG*dT*d[5mC]*dA*kG*kT*kT; antisense) [compound 799240]”, the “% inhibition of SMAD7 mRNA expression” value was 45%.
Turning to “799268 (antisense kT*k[5mC]*k[5mC]*dA*dG*dT*dT*d[5mC]*dG*dG*d[5mC]*d[5mC]*dT*kT*k[5mC]*k[5mC]) [compound 799268]”, the “% inhibition of SMAD7 mRNA expression” value amounted to 24%.
For “799269 (antisense kA*kG*kA*d[5mC]*dT*d[5mC]*d[5mC]*dA*dG*dT*dT*d[5mC]*dG*kG*k[5mC]*k[5mC]) [compound 799269]”, the “% inhibition of SMAD7 mRNA expression” value amounted to 20%.

For orientation: % Inhibition means the change of the read-out against control, counted positive when it falls. Read a low % Inhibition as little suppression.
